“Also recorded” adds a separate entry of the source. Like-named read-outs stand apart in the source and are kept apart here.
How the values were obtained:
Assay type in all cases: biochemical, H. sapiens
[1] = tested on: TC-PTP (TCPTP1-317; TCPTP292 in FIG. 12); assay: TC-PTP-catalyzed hydrolysis of pNPP in the presence of terpenoids; details: PTP1B321 vs TCPTP292 / TC-PTP, pNPP
Procedure: (§1) Enzyme kinetics. To examine terpenoid-mediated inhibition, we measured PTP-catalyzed hydrolysis of p-nitrophenyl phosphate (pNPP) or 4-methylumbelliferyl phosphate (4-MUP, used when KM for pNPP was large) in the presence of various concentrations of terpenoids. Each reaction included PTP (0.05 μM PTP1B/TCPTP or 0.1 μM SHP1/SHP2 in 50 mM HEPES, 0.5 mM TCEP, 50 μg/ml BSA), pNPP (0.33, 0.67, 2, 5, 10, and 15 mM) or 4-MUP (0.13, 0.27, 0.8, 2.27, 2.93, 4.53, 7.07, and 8 mM), inhibitor (with concentrations listed in the figures), buffer (50 mM HEPES pH=7.3, 50 μg/ml BSA), and DMSO at 10% v/v. We monitored the formation of p-nitrophenol by measuring absorbance at 405 nm every 10 seconds for 5 minutes on a SpectraMax M2 plate reader and the formation of 4-methylumbelliferyl by measuring fluorescence at 450 nm (370 nm ex, 435 nm cutoff, medium gain).
(§2) We used a custom MATLAB script to process all raw kinetic data. This script removed all concentration values that fell outside of either (i) the range of our standard curve (absorbance/fluorescence vs. μM; FIG. 39) or (ii) the initial rate regime (>10% of the pNPP or 4-MUP concentration used in the assay). When this step reduced kinetic dataset to fewer than ten points, we re-measured those datasets to collect at least ten. We fit final datasets, in turn, with a linear regression model (using Matlab's backslash operator).
(§3) We evaluated kinetic models in three steps: (i) We fit initial-rate measurements collected in the absence and presence of inhibitors to Michaelis-Menten and inhibition models, respectively (here, we used the nlinfit and fminsearch functions from MATLAB; TABLE 12). (ii) We used an F-test to compare the mixed model to the single-parameter model with the least sum squared error (here, we used the fedf function from MATLAB to assign p-values), and we accepted the mixed model when p<0.05. (iii) We used the Akaike's Information Criterion (AIC) to compare the best-fit single parameter model to each alternative single parameter model, and we accepted the “best-fit” model when the difference in AIC (Δi) exceed 5 for all comparisons.^78 We note: For AD, AB, and (+) 1-(10),4-cadinadiene this criterion was not met; both noncompetitive and uncompetitive models, however, yielded indistinguishable ICso's.
(§4) We used the MATLAB function “nlparci” to determine the confidence intervals of kinetic parameters, and we propagated those intervals to estimate corresponding confidence intervals for each IC50.

[2] = biological target: T1, TC-PTP (TCPTP1-317; TCPTP292 in FIG. 12) (Mus musculus, UniProt Q06180); assay: as above; details: TCPTP1-317
T1 construct: His-tag; made in house; host or cells: E. coli BL21 (DE3), pET16b
T1 sequence (Q06180 1-317): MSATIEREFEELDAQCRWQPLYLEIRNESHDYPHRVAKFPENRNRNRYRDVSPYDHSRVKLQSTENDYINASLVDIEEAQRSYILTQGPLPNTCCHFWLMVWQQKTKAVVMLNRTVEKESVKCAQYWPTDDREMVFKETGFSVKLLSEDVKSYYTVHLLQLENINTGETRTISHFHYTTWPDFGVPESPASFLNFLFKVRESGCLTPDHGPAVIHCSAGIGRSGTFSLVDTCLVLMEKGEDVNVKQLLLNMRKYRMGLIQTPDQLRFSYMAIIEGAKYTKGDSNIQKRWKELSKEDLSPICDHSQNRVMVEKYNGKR
Procedure: as §1, §2, §3, §4

PTP1B (PTP1B1-321) = biological target: T2, PTP1B (PTP1B1-321) (Homo sapiens, UniProt P18031); assay: PTP1B-catalyzed hydrolysis of pNPP in the presence of terpenoids (enzyme kinetics, IC50 from best-fit models); details: for IC50: 15 mM pNPP, 10% DMSO; for Ki: PTP1B1-321
T2 construct: His-tag; made in house; host or cells: E. coli BL21 (DE3), pET21b
T2 sequence (P18031 1-321): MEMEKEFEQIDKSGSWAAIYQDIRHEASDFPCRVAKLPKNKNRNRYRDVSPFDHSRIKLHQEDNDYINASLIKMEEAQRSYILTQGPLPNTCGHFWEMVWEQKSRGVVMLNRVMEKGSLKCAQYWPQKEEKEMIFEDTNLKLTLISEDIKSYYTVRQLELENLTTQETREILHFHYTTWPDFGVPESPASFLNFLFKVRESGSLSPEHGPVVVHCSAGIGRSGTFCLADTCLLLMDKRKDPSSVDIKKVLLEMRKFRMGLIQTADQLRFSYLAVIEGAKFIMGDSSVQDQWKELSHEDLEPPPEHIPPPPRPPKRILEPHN
Procedure: Enzyme kinetics. To examine terpenoid-mediated inhibition, PTP1B-catalyzed hydrolysis of p-nitrophenyl phosphate (pNPP) was measured in the presence of various concentrations of terpenoids. Each reaction included PTP1B ([…]), pNPP (0.33, 0.67, 2, 5, 10, and 15 mM), inhibitors (110 μM, 50 μM, and 15 μM for amorphadiene; 100 μM, 50 μM, and 16.7 μM for taxadiene), and buffer (50 mM HEPES pH=7.5, 0.5 mM TCEP, 50 μg/ml BSA, 10% DMSO). The formation of p-nitrophenol was monitored by measuring absorbance at 405 nm every 10 seconds for 5 minutes on a Spectramax M2 plate reader.
Kinetic models were evaluated in three steps: (i) Initial-rate measurements collected in the absence and presence of inhibitors were fitted to Michaelis-Menten and inhibition models, respectively (here, the nlinfit and fminsearch functions from MATLAB were used). (ii) An F-test was used to compare the mixed model to the single-parameter model with the least sum squared error (here, the fcdf function from MATLAB was used to assign p-values), and the mixed model was accepted when p<0.05.
The MATLAB function “nlparci” was used to determine the confidence intervals of kinetic parameters, and those intervals were propagated to estimate corresponding confidence on IC50's.
as §1, §2
We evaluated kinetic models in three steps: (i) We fit initial-rate measurements collected in the absence and presence of inhibitors to Michaelis-Menten and inhibition models, respectively (here, we used the nlinfit and fminsearch functions from MATLAB; TABLE 12). (ii) We used an F-test to compare the mixed model to the single-parameter model with the least sum squared error (here, we used the fedf function from MATLAB to assign p-values), and we accepted the mixed model when p<0.05.

[3] = mixed model, uncompetitive constant, read-out: Fit par. Ki,u, mixed model
[4] = noncompetitive model of inhibition, read-out: Fit par. Ki, noncompetitive model
[5] = uncompetitive model of inhibition, read-out: Fit par. Ki, uncompetitive model
[6] = Example 2, HEPES pH 7.3, ± 95% confidence interval
[7] = competitive model of inhibition, read-out: Fit par. Ki, competitive model
[8] = mixed model, competitive constant, read-out: Fit par. Ki,c, mixed model

| Structure (SMILES) | potency against PTP1B relative to TC-PTP (selectivity from IC50's) [1] | potency against PTP1B relative to TC-PTP (selectivity from IC50's) ([1]; listed as AD) | Ki [2, 3] | Ki [2, 4] | Ki [2, 5] | IC50 (PTP1B (PTP1B1-321); Example 1, HEPES pH 7.5) | IC50 (PTP1B (PTP1B1-321); [6]) | Ki (PTP1B (PTP1B1-321); [7]) | Ki (PTP1B (PTP1B1-321); [8]) | Ki (PTP1B (PTP1B1-321); [3]) | Ki (PTP1B (PTP1B1-321); [4]) | Ki (PTP1B (PTP1B1-321); [5]) | simultaneous binding with TCS401 (Dixon plot) (PTP1B (PTP1B1-321); Vo^−1 vs. [TCS401] at various concentrations of AD) | simultaneous binding with orthovanadate (Dixon plot) (PTP1B (PTP1B1-321); Vo^−1 vs. [orthovanadate] at various concentrations of AD) | model (mode) of PTP1B inhibition from Michaelis-Menten fits (PTP1B (PTP1B1-321); pNPP initial rates) | potency against PTP1B relative to TC-PTP (selectivity from IC50's) ([1]; listed as AB) | Ki [2, 8] |
| --- | --- | --- | --- | --- | --- | --- | --- | --- | --- | --- | --- | --- | --- | --- | --- | --- | --- |
| C=C(C)[C@@H]1CC[C@@H](C)[C@@H]2CCC(C)=C[C@@H]21 [amorphadiene] | ~ five-fold; also recorded: much more potently | five- to six-fold | 356 µM | 400 µM | 356 µM | ~53 µM | 53 ± 8 µM | 2.85 µM | 86.2 µM | 50.1 µM | 52.6 µM | 46.3 µM | cannot bind simultaneously | can bind simultaneously | noncompetitive or uncompetitive inhibition; also recorded: noncompetitive inhibition | – | – |
| CC(C)=CCC=C(C)C1CC=C(C)CC1 (stereo not drawn) [α-bisabolene] | much more potently | – | 69.3 µM | 76.2 µM | 69.2 µM | ~20 µM | 13 ± 2 µM | 1.05 µM | 9.51 µM | 13.7 µM | 13.1 µM | 11.7 µM | – | – | – | five- to six-fold | 3610 µM |
